Assay results taken from patent US4018775A, “5-Phenyl-thiazolidin-4-one derivatives” (Warner-Lambert Company, priority 1974, dated 1977).
Like-named read-outs stand apart in the source and are kept apart here.

Legend:
Assay type in all cases: in vivo
[1] = Acute toxicity in the 7 day test on mice; settings: mouse, in vivo, po; male NMRI mice, intragastral (i.g.), 7 days observation
Procedure: (§1) The acute toxicity of the thiazolidones according to the present invention was investigated on male mice (NMRI) with a body weight of 21-26 g. Before commencement of the experiment, the animals fasted for 24 hours but with water available ad libitum. There were 4 mice in each dosage group. The dosage was increased by a factor of 2. The test compounds were suspended in a 1% tragacanth mucilage and administered intragastrally by, means of a stomach probe. The amount of liquid administered was 0.2 ml./10 g. body weight. […] Silymarin was used as standard substance. The LD50 values determined are set out in the following Table I: […]

[2] = tested on: mice with liver damage caused by α-amanitine; test: Anti-hepatotoxic action: survival rate of mice with liver damage caused by α-amanitine; settings: for effect on survival rate of α-amanitine liver damaged mice (in words): in comparison with untreated control animals
Procedure: As a further animal experimental test model for the testing of the anti-hepatotoxic actions of pharmaceuticals, use is made of the liver damage in mice produced by α-amanitine.
Since it is extremely difficult to obtain α-amanitine in sufficient amounts, only a small amount of α-amanitine was available for these experiments so that the experiments could only be carried out to a very limited extent.
The influence of Compounds Nos. 1 and 4 was determined on the survival rate of mice with liver damage brought about by α-amanitine. As standard substance, there was again used silymarin which was tested by us in the dosage found to be effective by Hahn et al. (Arzneimittel Forschung, 18, 697/1968) as an anti-hepatotoxic in the same experimental procedure.
Each experimental group consisted of 25 animals. The test substances were administered daily over a period of 6 days, administration being intragastrally in a tragacanth mucilage (0.2 ml./10 g. body weight), using a stomach probe.
The intraperitoneal administration of, in each case, 0.3 mg./kg. α-amanitine took place in all experimental groups on the second day of the experiment. The dosage of α-amanitine was so chosen that the mortality rate of the untreated animals remained below 100%. The survival rate of the animals of all experimental groups was monitored daily for a total period of 14 days. The statistical comparison of the survival rate took place according to the Vierfelder […]. The comparative values obtained are set out in the following Table III: […]

male mice (NMRI) = test: Acute toxicity in the 7 day test on mice; settings: intragastral (i.g.), 7 days observation
Procedure: as §1

[3] = 2 × 250 mg/kg/day i.g., untreated 52%, 14 days

| Compound | LD50 at 168 h [1] | survival rate of α-amanitine liver damaged animals, treated [2, 3] | effect on survival rate of α-amanitine liver damaged mice (in words) [2] | LD50 (male mice (NMRI)) | survival rate of α-amanitine liver damaged animals, treated [2] |
| --- | --- | --- | --- | --- | --- |
| CCOC(=O)C=C1SC(c2ccccc2)(N2CCCCC2)C(=O)N1C (stereo not drawn) [Compound 1, ethyl 3-methyl-5-phenyl-5-N-piperidino-4-oxo-Δ^2,^α -thiazolidine-acetate] | > 1600 mg/kg | 92% | clearly increases the survival rate |  |  |
| CCOC(=O)C=C1SC(c2ccccc2)(N2CCCC2)C(=O)N1C (stereo not drawn) [Compound 2, ethyl 3-methyl-5-phenyl-5-N-pyrrolidino-4-oxo-Δ^2,^α -thiazolidine-acetate] | > 1600 mg/kg |  |  |  |  |
| CCOC(=O)C=C1SC(CC)(c2ccccc2)C(=O)N1C (stereo not drawn) [Compound 3, ethyl 3-methyl-5-ethyl-5-phenyl-4-oxo-Δ^2,^α -thiazolidine-acetate] | ~1600 mg/kg |  |  | about 1600 mg./kg. |  |
| CCOC(=O)C=C1SC(c2ccccc2)(N2CCCCC2)C(=O)N1CC (stereo not drawn) [Compound 4, Ethyl 3-ethyl-5-phenyl-5-N-piperidino-4-oxo-Δ^2,^α -thiazolidine-acetate] | > 1600 mg/kg | 100% | statistically highly significant |  | 100% |
| CCOC(=O)C=C1SC(c2ccccc2)(N(C)CCO)C(=O)N1CC (stereo not drawn) [Compound 5, Ethyl 3-ethyl-5-phenyl-5-(methyl-β-hydroxyethylamino)-4-oxo-Δ^2,^α -thiazolidine-acetate] | > 1600 mg/kg |  |  |  |  |
